Measurements: patent US9630958B2, “Triazine compounds” (Sphaera Pharma Pte. Ltd., priority 2012, dated 2017)

What was measured:
Recombinant mTOR (FRAP1) = molecular target: T1, Recombinant mTOR (FRAP1) (Homo sapiens, UniProt P42345); assay: mTOR in vitro kinase assay (TR-FRET, phosphorylation of GFP-4E-BP1); format: biochemical; settings: for inhibition at 1 µM: 1 uM compound, read-out: mTOR % Inhib@1 uM; for IC50: 8 μM ATP, 400 nM GFP-4E-BP1
T1 construct: purchased Invitrogen
Protocol: Compounds were evaluated for mTOR activity using an in vitro kinase assay.
mTOR activity is measured in vitro by determining the level of phosphorylation of the protein substrate 4EBP-1. The phosphorylation of GFP-4E-BP1 at threonine residue is recognized by Ab Tb-Anti-p4EBP1, which results in time resolved fluorescence energy transfer (TR-FRET) between GFP and Terbium in the Ab-Protein complex.
Recombinant mTOR (FRAP1), Kinase reaction buffer, GFP-4E-BP1 and LanthaScreen Tb-anti-4E-BP1 (pThr46), TR FRET dilution buffer, Kinase Quench Buffer were obtained from Invitrogen.
Kinase reactions were performed in 10 μl volume in Corning white 384 well plates. […] The reaction was initiated by the addition of substrate (GFP-4E-BP1) and ATP at a final conc. of 400 nM and 8 μM ATP in the reaction respectively. The kinase reaction was allowed to proceed for 1 hour at room temperature before a 10 μL preparation of kinase quench buffer and Tb-labeled Antibody in TR-FRET dilution buffer was added. The final concentration of the antibody in the assay well is 2 nM and the final concentration of EDTA is 10 mM. The plate was incubated at room temperature for 1 h.
(§1) FRET signal was read in Envision Multilabel Reader with the following filters:
Excitation-330 nm and Emission 486 nm (donor) and 520 nm (acceptor).
TR FRET Ratio (Fluorescence 520 nm/Fluorescence 486 nm) was plotted against the concentration of inhibitor and data was fit to Non Linear Regression curve fit (sigmoidal dose response curve with variable slope-four parameters) using Graph Pad Prism 5.

[1] = molecular target: T2, PI3 Kinase alpha (p110 alpha/p85 alpha) (Homo sapiens, UniProt P42336); assay: PI3K TR-FRET assay (Transcreener ADP2); format: biochemical; settings: for IC50: PI3K alpha, 1 μM ATP, 50 μM PIP2; for inhibition at 1 µM: 1 uM compound, read-out: PI3K % Inhib@1 uM
T2 construct: purchased Invitrogen
Protocol: Enzymatic activity of PI3K alpha was measured using Time resolved Fluorescence resonance energy transfer (TR-FRET) assay. This assay utilizes ADP detection as a means to screen inhibitor potency of compounds. The Transcreener ADP2 TR-FRET Red Assay is a competitive immunoassay for ADP with a far-red, TR-FRET readout and it has been used for this purpose. The assay can be used for any enzyme class that produces ADP (Kinases, ATPases). It consists of ADP HiLyte647 Tracer, ADP^2 Antibody-Tb conjugate (800 nM), stop & detect buffer, 5 mM ATP, 5 mM ADP. The ADP HiLyte647 Tracer is bound to an ADP^2 Antibody-Tb conjugate. The excitation of the terbium complex in the UV range results in energy transfer to the tracer and emission at a higher wavelength after a time delay ADP produced by the target enzyme displaces the tracer which causes decrease in TR-FRET.
The reaction buffer used for the assay was 50 mM HEPES, pH 7.4.3 mM MgCl2, 0.05% CHAPS, 50 mM NaCl, 2 mM DTT, 1 mM EGTA. PI3 Kinase alpha (p110 alpha/p85 alpha) and PIP2 Substrate (diC8,) were procured from Invitrogen and Echelon respectively.
Kinase reactions were performed in 10 μl volume in Corning white 384 well plates. […] Reaction was initiated by the addition of substrate (PIP2) and ATP at final conc. of 50 μM and 1 μM ATP in the reaction respectively. Kinase reactions were allowed to proceed for 1 hour at room temperature before a 10 μL preparation of Transcreener ADP detection mix was added. Plate was incubated at room temperature for 1 hr. ADP-ATP standard curves were also prepared.
as §1
Excitation-330 nm and Emission 615 nm (donor) and 665 nm (acceptor). TR FRET Ratio (Fluorescence 665 nm/Fluorescence 615 nm) was converted to amount of product formed using the standard curve generated. Percentage inhibition was calculated and plotted against the concentration of inhibitor and data was fit to Non Linear Regression curve fit (sigmoidal dose response curve with variable slope-four parameters) using Graph pad prism 5 and IC50 was calculated for the compound.

T2 sequence (P42336 whole entry): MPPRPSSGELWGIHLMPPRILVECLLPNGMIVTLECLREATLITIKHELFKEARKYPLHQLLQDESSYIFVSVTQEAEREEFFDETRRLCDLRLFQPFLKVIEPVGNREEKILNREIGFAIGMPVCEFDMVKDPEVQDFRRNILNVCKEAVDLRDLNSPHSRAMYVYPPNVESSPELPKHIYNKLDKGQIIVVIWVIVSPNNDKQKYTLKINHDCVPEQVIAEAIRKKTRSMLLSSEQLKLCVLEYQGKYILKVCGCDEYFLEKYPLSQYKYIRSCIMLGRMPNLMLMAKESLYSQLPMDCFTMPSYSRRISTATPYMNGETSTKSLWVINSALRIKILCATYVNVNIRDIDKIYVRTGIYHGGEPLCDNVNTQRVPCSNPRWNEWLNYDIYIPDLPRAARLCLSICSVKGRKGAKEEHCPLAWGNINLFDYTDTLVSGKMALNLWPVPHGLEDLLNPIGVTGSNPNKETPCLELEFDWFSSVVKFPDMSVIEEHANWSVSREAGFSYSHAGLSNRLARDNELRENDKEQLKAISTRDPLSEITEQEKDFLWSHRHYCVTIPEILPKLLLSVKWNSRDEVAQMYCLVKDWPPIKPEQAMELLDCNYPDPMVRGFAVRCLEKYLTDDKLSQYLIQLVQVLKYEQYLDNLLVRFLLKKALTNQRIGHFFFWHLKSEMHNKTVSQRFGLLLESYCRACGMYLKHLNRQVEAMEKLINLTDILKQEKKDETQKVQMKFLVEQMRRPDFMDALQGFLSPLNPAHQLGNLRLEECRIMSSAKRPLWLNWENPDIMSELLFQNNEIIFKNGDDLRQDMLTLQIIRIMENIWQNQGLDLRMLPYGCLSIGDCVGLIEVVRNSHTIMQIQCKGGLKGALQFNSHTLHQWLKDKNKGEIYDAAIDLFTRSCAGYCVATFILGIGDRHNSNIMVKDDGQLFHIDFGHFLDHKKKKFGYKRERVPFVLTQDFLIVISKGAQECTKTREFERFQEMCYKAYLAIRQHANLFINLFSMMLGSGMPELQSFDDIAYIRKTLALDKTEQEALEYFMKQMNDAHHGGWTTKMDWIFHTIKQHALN
T2 sequence (P27986 whole entry partner): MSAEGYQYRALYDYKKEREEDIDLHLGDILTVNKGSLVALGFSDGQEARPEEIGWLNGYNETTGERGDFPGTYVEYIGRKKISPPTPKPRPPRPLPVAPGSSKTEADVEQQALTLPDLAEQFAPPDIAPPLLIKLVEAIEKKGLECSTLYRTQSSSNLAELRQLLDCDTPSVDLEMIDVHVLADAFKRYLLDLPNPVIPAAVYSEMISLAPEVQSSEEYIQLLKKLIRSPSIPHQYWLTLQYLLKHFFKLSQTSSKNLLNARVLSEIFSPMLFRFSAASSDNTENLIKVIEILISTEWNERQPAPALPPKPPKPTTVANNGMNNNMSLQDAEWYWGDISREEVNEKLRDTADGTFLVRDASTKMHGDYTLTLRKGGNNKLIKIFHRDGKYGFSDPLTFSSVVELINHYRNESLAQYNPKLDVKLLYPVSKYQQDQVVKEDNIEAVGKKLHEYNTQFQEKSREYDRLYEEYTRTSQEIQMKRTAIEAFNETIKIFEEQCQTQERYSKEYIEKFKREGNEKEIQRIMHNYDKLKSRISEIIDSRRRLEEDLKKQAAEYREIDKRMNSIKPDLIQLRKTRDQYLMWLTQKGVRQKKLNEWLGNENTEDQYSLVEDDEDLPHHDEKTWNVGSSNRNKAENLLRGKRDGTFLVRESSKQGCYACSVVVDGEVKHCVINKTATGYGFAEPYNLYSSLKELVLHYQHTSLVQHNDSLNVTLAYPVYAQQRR
T1 sequence (P42345 1360-2549 limits assumed): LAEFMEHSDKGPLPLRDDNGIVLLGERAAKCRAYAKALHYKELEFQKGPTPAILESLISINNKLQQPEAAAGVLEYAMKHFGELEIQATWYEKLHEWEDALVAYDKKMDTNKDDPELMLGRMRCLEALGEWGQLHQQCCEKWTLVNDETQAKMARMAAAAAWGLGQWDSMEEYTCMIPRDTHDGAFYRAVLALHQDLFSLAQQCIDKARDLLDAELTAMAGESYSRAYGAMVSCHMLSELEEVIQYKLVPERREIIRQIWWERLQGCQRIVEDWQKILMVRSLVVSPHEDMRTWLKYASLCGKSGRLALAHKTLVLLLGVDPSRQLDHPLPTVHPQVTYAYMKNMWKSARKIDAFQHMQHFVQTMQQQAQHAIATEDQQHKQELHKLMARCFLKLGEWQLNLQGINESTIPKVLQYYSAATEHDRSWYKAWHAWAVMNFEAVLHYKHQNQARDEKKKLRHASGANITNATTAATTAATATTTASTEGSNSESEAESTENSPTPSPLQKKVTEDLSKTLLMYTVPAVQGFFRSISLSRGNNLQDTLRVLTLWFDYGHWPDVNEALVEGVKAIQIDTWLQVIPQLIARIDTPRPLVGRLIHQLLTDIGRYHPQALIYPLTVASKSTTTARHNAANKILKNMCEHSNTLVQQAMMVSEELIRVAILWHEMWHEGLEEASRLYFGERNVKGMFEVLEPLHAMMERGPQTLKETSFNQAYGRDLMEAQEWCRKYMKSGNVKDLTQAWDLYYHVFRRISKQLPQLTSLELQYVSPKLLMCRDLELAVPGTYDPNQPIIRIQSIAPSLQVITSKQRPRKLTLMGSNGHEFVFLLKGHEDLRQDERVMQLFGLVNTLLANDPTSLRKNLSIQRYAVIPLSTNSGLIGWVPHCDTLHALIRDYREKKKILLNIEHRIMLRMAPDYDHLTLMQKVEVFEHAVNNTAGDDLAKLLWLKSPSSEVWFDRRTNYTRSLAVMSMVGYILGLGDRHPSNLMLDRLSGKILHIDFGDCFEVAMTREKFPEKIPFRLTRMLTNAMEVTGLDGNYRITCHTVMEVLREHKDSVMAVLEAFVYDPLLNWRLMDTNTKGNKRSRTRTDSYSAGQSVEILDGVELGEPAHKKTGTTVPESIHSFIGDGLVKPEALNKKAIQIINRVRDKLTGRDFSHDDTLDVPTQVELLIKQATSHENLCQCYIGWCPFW

CN(C)C(=O)N1CCC(Oc2nc(-c3ccc(N)nc3)nc(N3CCOCC3)n2)CC1 [Compound 10021, 4-(4-(6-aminopyridin-3-yl)-6-morpholino-1,3,5-triazin-2-yloxy)-N,N-dimethylpiperidine-1-carboxamide]
inhibition at 1 µM (Recombinant mTOR (FRAP1)): > 50% | IC50 (Recombinant mTOR (FRAP1)): < 1000 nM | IC50 [1]: < 1000 nM

CN(C)C(=O)c1ccc(Oc2nc(-c3cnc(N)s3)nc(N3CCOCC3)n2)c(F)c1 [Compound 10022, 4-(4-(2-aminothiazol-5-yl)-6-morpholino-1,3,5-triazin-2-yloxy)-3-fluoro-N,N-dimethylbenzamide]
inhibition at 1 µM (Recombinant mTOR (FRAP1)): > 50% | IC50 (Recombinant mTOR (FRAP1)): < 1000 nM | IC50 [1]: < 1000 nM

CN(C)C(=O)c1ccc(Oc2nc(-c3cnc(N)s3)nc(N3CCOc4ccccc43)n2)cc1 [Compound 10029, 4-(4-(2-aminothiazol-5-yl)-6-(2H-benzo[b][1,4]oxazin-4(3H)-yl)-1,3,5-triazin-2-yloxy)-N,N-dimethylbenzamide]
inhibition at 1 µM (Recombinant mTOR (FRAP1)): > 50% | IC50 (Recombinant mTOR (FRAP1)): < 1000 nM | inhibition at 1 µM [1]: < 50% | IC50 [1]: > 1000 nM

CN(C)C(=O)c1ccc(Oc2nc(-c3cnc(N)s3)nc(N3C[C@H]4C[C@@H](C3)O4)n2)cc1 [Compound 10046, 4-(4-(2-aminothiazol-5-yl)-6-((1R,5S)-6-oxa-3-azabicyclo[3.1.1]heptan-3-yl)-1,3,5-triazin-2-yloxy)-N,N-dimethylbenzamide]
inhibition at 1 µM (Recombinant mTOR (FRAP1)): < 50% | inhibition at 1 µM [1]: < 50%

CN(C)C(=O)[C@H]1CC[C@H](Oc2nc(-c3ccc(N)nc3)nc(N3CCOCC3)n2)CC1 [Compound 10049, (1r,4r)-4-(4-(6-aminopyridin-3-yl)-6-morpholino-1,3,5-triazin-2-yloxy)-N,N-dimethylcyclohexanecarboxamide]
inhibition at 1 µM (Recombinant mTOR (FRAP1)): > 50% | IC50 (Recombinant mTOR (FRAP1)): < 1000 nM | IC50 [1]: < 1000 nM

CN(C)C(=O)c1ccc(Oc2nc(-c3ccc(N)nc3)nc(N3[C@@H]4CC[C@H]3COC4)n2)cc1 [Compound 10050, 4-(4-(6-aminopyridin-3-yl)-6-((1R,5S)-3-oxa-8-azabicyclo[3.2.1]octan-8-yl)-1,3,5-triazin-2-yloxy)-N,N-dimethylbenzamide]
inhibition at 1 µM (Recombinant mTOR (FRAP1)): > 50% | IC50 (Recombinant mTOR (FRAP1)): < 1000 nM | IC50 [1]: > 1000 nM

C[C@H]1COCCN1c1nc(Oc2ccc(C(=O)N(C)C)cc2F)nc(-c2ccc3[nH]ncc3c2)n1 [Compound 10051, (S)-4-((4-(1H-indazol-5-yl)-6-(3-methylmorpholino)-1,3,5-triazin-2-yl)oxy)-3-fluoro-N,N-dimethylbenzamide]
inhibition at 1 µM (Recombinant mTOR (FRAP1)): > 50% | IC50 (Recombinant mTOR (FRAP1)): < 1000 nM | IC50 [1]: > 1000 nM

C[C@H]1OCCN(c2nc(Oc3ccc(C(=O)N(C)C)cc3F)nc(-c3cnc(N)s3)n2)[C@H]1C [Compound 10052, 4-((4-(2-Aminothiazol-5-yl)-6-((2R,3S)-2,3-dimethylmorpholino)-1,3,5-triazin-2-yl)oxy)-3-fluoro-N,N-dimethylbenzamide]
IC50 (Recombinant mTOR (FRAP1)): < 1000 nM | inhibition at 1 µM [1]: > 50% | IC50 [1]: < 1000 nM

C[C@@H]1OCCN(c2nc(Oc3ccc(C(=O)N(C)C)cc3F)nc(-c3cnc(N)s3)n2)[C@H]1C [Compound 10053, 4-((4-(2-Aminothiazol-5-yl)-6-((2S,3S)-2,3-dimethylmorpholino)-1,3,5-triazin-2-yl)oxy)-3-fluoro-N,N-dimethylbenzamide]
IC50 (Recombinant mTOR (FRAP1)): < 1000 nM | IC50 [1]: > 1000 nM

C[C@@H]1CN(c2nc(Oc3ccc(C(=O)N(C)C)cc3F)nc(-c3cnc(N)s3)n2)[C@@H](C)CO1 [Compound 10057, 4-((4-(2-Aminothiazol-5-yl)-6-((2R,5S)-2,5-dimethylmorpholino)-1,3,5-triazin-2-yl)oxy)-3-fluoro-N,N-dimethylbenzamide]
IC50 (Recombinant mTOR (FRAP1)): < 1000 nM | inhibition at 1 µM [1]: < 50%

C[C@H]1COCCN1c1nc(Oc2ccc(C(=O)N(C)C)cc2F)nc(-c2ccc(N)nc2)n1 [Compound 10058, (S)-4-((4-(6-Aminopyridin-3-yl)-6-(3-methylmorpholino)-1,3,5-triazin-2-yl)oxy)-3-fluoro-N,N-dimethylbenzamide]
IC50 (Recombinant mTOR (FRAP1)): < 1000 nM | IC50 [1]: < 1000 nM
